Results: patent US10681909B2, “Herbicidal triazoles” (FMC Corporation, priority 2014, dated 2020)

What was measured:
johnsongrass = assay: Test C postemergence; format: in vivo, Sorghum halepense
How it was run: (§1)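 Surfactant-containing, non-phytotoxic solvent formulations of each compound were applied either preemergence to seeds in a loam soil–sand blend or postemergence to plants 2 to 18 cm tall (1- to 4-leaf stage). Postemergence plants were grown in peat moss–vermiculite medium.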

oilseed rape = assay: Test C postemergence; format: in vivo, Brassica napus
How it was run: as §1

nutsedge, yellow = assay: Test C postemergence; format: in vivo, Cyperus esculentus
How it was run: as §1

foxtail, giant [1] = assay: Test C postemergence; format: in vivo, Setaria faberii
How it was run: as §1

chickweed = assay: Test C postemergence; format: in vivo, Stellaria media
How it was run: as §1

foxtail, giant [2] = assay: Test A postemergence; format: in vivo, Setaria faberii; details: 0 to 100 scale (0 no effect, 100 complete control), approx. 10 d
How it was run: (§2)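 Pre- and postemergence spray tests in a loam soil–sand mixture: seeded soil received a directed spray, while established seedlings 2–10 cm high at the one- to two-leaf stage were treated over the top. Compounds were carried in non-phytotoxic solvent with surfactant.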

wheat (winter wheat) = assay: Test C postemergence; format: in vivo, Triticum aestivum
How it was run: as §1

corn [3] = assay: Test C postemergence; format: in vivo, Zea mays
How it was run: as §1

ragweed = assay: Test C postemergence; format: in vivo, Ambrosia elatior
How it was run: as §1

barnyardgrass [4] = assay: Test B flooded paddy test; format: in vivo, Echinochloa crus-galli; details: 250 g ai/ha, applied to paddy water at 2-leaf stage, visual rating after 13 to 15 d, scale 0 (no effect) to 100 (complete control)
How it was run: (§3)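 Pots were flooded to 3 cm above the soil at treatment, and compounds were applied directly into the paddy water. That depth was held throughout. After 13 to 15 d in a greenhouse, plants were rated visually against untreated controls.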

sedge, umbrella = assay: Test B flooded paddy test; format: in vivo, Cyperus difformis; details: 250 g ai/ha, applied to paddy water at 2-leaf stage, visual rating after 13 to 15 d, scale 0 (no effect) to 100 (complete control)
How it was run: as §3

corn [5] = assay: Test A postemergence; format: in vivo, Zea mays; details: 0 to 100 scale (0 no effect, 100 complete control), approx. 10 d
How it was run: as §2

ryegrass, Italian = assay: Test C postemergence; format: in vivo, Lolium multiflorum
How it was run: as §1

oat, wild = assay: Test C postemergence; format: in vivo, Avena fatua
How it was run: as §1

pigweed [6] = assay: Test C postemergence; format: in vivo, Amaranthus retroflexus
How it was run: as §1

rice = assay: Test B flooded paddy test; format: in vivo, Oryza sativa; details: 250 g ai/ha, applied to paddy water at 2-leaf stage, visual rating after 13 to 15 d, scale 0 (no effect) to 100 (complete control)
How it was run: as §3

galium = assay: Test C postemergence; format: in vivo, Galium aparine
How it was run: as §1

ducksalad = assay: Test B flooded paddy test; format: in vivo, Heteranthera limosa; details: 250 g ai/ha, applied to paddy water at 2-leaf stage, visual rating after 13 to 15 d, scale 0 (no effect) to 100 (complete control)
How it was run: as §3

pigweed [7] = assay: Test A postemergence; format: in vivo, Amaranthus retroflexus; details: 0 to 100 scale (0 no effect, 100 complete control), approx. 10 d
How it was run: as §2

barnyardgrass [8] = assay: Test A postemergence; format: in vivo, Echinochloa crus-galli; details: 0 to 100 scale (0 no effect, 100 complete control), approx. 10 d
How it was run: as §2

lambsquarters = assay: Test C postemergence; format: in vivo, Chenopodium album
How it was run: as §1

COc1nc(-c2ccccc2)nn1Cc1ccnc(C(F)(F)F)c1 [Compound 32]
Plant response rating (scale of 0 to 100 where 0 is no effect and 100 is complete control) (johnsongrass; 31 g ai/ha): 10
Plant response rating (scale of 0 to 100 where 0 is no effect and 100 is complete control) (johnsongrass; 62 g ai/ha): 10
Plant response rating (scale of 0 to 100 where 0 is no effect and 100 is complete control) (johnsongrass; 125 g ai/ha): 10
Plant response rating (scale of 0 to 100 where 0 is no effect and 100 is complete control) (johnsongrass; 250 g ai/ha): 10
Plant response rating (scale of 0 to 100 where 0 is no effect and 100 is complete control) (oilseed rape; Oilsee Rape, 250 g ai/ha): 45
Plant response rating (scale of 0 to 100 where 0 is no effect and 100 is complete control) (oilseed rape; Oilseed Rape, 31 g ai/ha): 20
Plant response rating (scale of 0 to 100 where 0 is no effect and 100 is complete control) (oilseed rape; Oilseed Rape, 62 g ai/ha): 5
Plant response rating (scale of 0 to 100 where 0 is no effect and 100 is complete control) (oilseed rape; Oilseed Rape, 125 g ai/ha): 10
Plant response rating (scale of 0 to 100 where 0 is no effect and 100 is complete control) (nutsedge, yellow; 31 g ai/ha): 10
Plant response rating (scale of 0 to 100 where 0 is no effect and 100 is complete control) (nutsedge, yellow; 62 g ai/ha): 20
Plant response rating (scale of 0 to 100 where 0 is no effect and 100 is complete control) (nutsedge, yellow; 125 g ai/ha): 10
Plant response rating (scale of 0 to 100 where 0 is no effect and 100 is complete control) (nutsedge, yellow; 250 g ai/ha): 25
Plant response rating (scale of 0 to 100 where 0 is no effect and 100 is complete control) (foxtail, giant [1]; 31 g ai/ha): 10
Plant response rating (scale of 0 to 100 where 0 is no effect and 100 is complete control) (foxtail, giant [1]; 62 g ai/ha): 10
Plant response rating (scale of 0 to 100 where 0 is no effect and 100 is complete control) (foxtail, giant [1]; 125 g ai/ha): 10
Plant response rating (scale of 0 to 100 where 0 is no effect and 100 is complete control) (foxtail, giant [1]; 250 g ai/ha): 10
Plant response rating (scale of 0 to 100 where 0 is no effect and 100 is complete control) (chickweed; 31 g ai/ha): 10
Plant response rating (scale of 0 to 100 where 0 is no effect and 100 is complete control) (chickweed; 62 g ai/ha): 10
Plant response rating (scale of 0 to 100 where 0 is no effect and 100 is complete control) (chickweed; 125 g ai/ha): 55
Plant response rating (scale of 0 to 100 where 0 is no effect and 100 is complete control) (chickweed; 250 g ai/ha): 50
Plant response rating, Foxtail, Giant (foxtail, giant [2]; 125 g ai/ha): 60
Plant response rating, Foxtail, Giant (foxtail, giant [2]; 500 g ai/ha): 90
Plant response rating (scale of 0 to 100 where 0 is no effect and 100 is complete control) (wheat (winter wheat); 31 g ai/ha): 0
Plant response rating (scale of 0 to 100 where 0 is no effect and 100 is complete control) (wheat (winter wheat); 62 g ai/ha): 0
Plant response rating (scale of 0 to 100 where 0 is no effect and 100 is complete control) (wheat (winter wheat); 125 g ai/ha): 0
Plant response rating (scale of 0 to 100 where 0 is no effect and 100 is complete control) (wheat (winter wheat); 250 g ai/ha): 0
Plant response rating (scale of 0 to 100 where 0 is no effect and 100 is complete control) (corn [3]; 31 g ai/ha): 10
Plant response rating (scale of 0 to 100 where 0 is no effect and 100 is complete control) (corn [3]; 62 g ai/ha): 20
Plant response rating (scale of 0 to 100 where 0 is no effect and 100 is complete control) (corn [3]; 125 g ai/ha): 25
Plant response rating (scale of 0 to 100 where 0 is no effect and 100 is complete control) (corn [3]; 250 g ai/ha): 35
Plant response rating (scale of 0 to 100 where 0 is no effect and 100 is complete control) (ragweed; 31 g ai/ha): 35
Plant response rating (scale of 0 to 100 where 0 is no effect and 100 is complete control) (ragweed; 62 g ai/ha): 70
Plant response rating (scale of 0 to 100 where 0 is no effect and 100 is complete control) (ragweed; 125 g ai/ha): 60
Plant response rating (scale of 0 to 100 where 0 is no effect and 100 is complete control) (ragweed; 250 g ai/ha): 60
Plant response rating, Barnyardgrass, Flood (barnyardgrass [4]): 0
Plant response rating, Sedge, Umbrella, Flood (sedge, umbrella): 75
Plant response rating, Corn (corn [5]; 125 g ai/ha): 10
Plant response rating, Corn (corn [5]; 500 g ai/ha): 30
Plant response rating (scale of 0 to 100 where 0 is no effect and 100 is complete control) (ryegrass, Italian; 31 g ai/ha): 0
Plant response rating (scale of 0 to 100 where 0 is no effect and 100 is complete control) (ryegrass, Italian; 62 g ai/ha): 0
Plant response rating (scale of 0 to 100 where 0 is no effect and 100 is complete control) (ryegrass, Italian; 125 g ai/ha): 0
Plant response rating (scale of 0 to 100 where 0 is no effect and 100 is complete control) (ryegrass, Italian; 250 g ai/ha): 10
Plant response rating (scale of 0 to 100 where 0 is no effect and 100 is complete control) (oat, wild; 31 g ai/ha): 0
Plant response rating (scale of 0 to 100 where 0 is no effect and 100 is complete control) (oat, wild; 62 g ai/ha): 5
Plant response rating (scale of 0 to 100 where 0 is no effect and 100 is complete control) (oat, wild; 125 g ai/ha): 5
Plant response rating (scale of 0 to 100 where 0 is no effect and 100 is complete control) (oat, wild; 250 g ai/ha): 10
Plant response rating (scale of 0 to 100 where 0 is no effect and 100 is complete control) (pigweed [6]; 31 g ai/ha): 98
Plant response rating (scale of 0 to 100 where 0 is no effect and 100 is complete control) (pigweed [6]; 62 g ai/ha): 95
Plant response rating (scale of 0 to 100 where 0 is no effect and 100 is complete control) (pigweed [6]; 125 g ai/ha): 98
Plant response rating (scale of 0 to 100 where 0 is no effect and 100 is complete control) (pigweed [6]; 250 g ai/ha): 98
Plant response rating, Rice, Flood (rice): 0
Plant response rating (scale of 0 to 100 where 0 is no effect and 100 is complete control) (galium; 31 g ai/ha): 20
Plant response rating (scale of 0 to 100 where 0 is no effect and 100 is complete control) (galium; 62 g ai/ha): 45
Plant response rating (scale of 0 to 100 where 0 is no effect and 100 is complete control) (galium; 125 g ai/ha): 60
Plant response rating (scale of 0 to 100 where 0 is no effect and 100 is complete control) (galium; 250 g ai/ha): 75
Plant response rating, Ducksalad, Flood (ducksalad): 30
Plant response rating, Pigweed (pigweed [7]; 125 g ai/ha): 90
Plant response rating, Pigweed (pigweed [7]; 500 g ai/ha): 100
Plant response rating, Barnyardgrass (barnyardgrass [8]; 125 g ai/ha): 30
Plant response rating, Barnyardgrass (barnyardgrass [8]; 500 g ai/ha): 60
Plant response rating (scale of 0 to 100 where 0 is no effect and 100 is complete control) (lambsquarters; 31 g ai/ha): 100
Plant response rating (scale of 0 to 100 where 0 is no effect and 100 is complete control) (lambsquarters; 62 g ai/ha): 95
Plant response rating (scale of 0 to 100 where 0 is no effect and 100 is complete control) (lambsquarters; 125 g ai/ha): 100
Plant response rating (scale of 0 to 100 where 0 is no effect and 100 is complete control) (lambsquarters; 250 g ai/ha): 98
